Measured values from patent publication US20230339970A1, “CASEIN KINASE 1 DELTA MODULATORS” (priority 2020, published 2023).

Experiments:
human CSNK1D = target: T1, human CSNK1D (Homo sapiens, UniProt P48730); experiment: Whole Cell nBRET CSNK1D Binding Assay; conditions: living CHO cells stably expressing human CSNK1D tagged with nanoluciferase; NanoBret tracer 130 nM; 2 hours at 37 C
T1 construct: expressed in transfected cells

[1] = target: T2, human recombinant GST cleaved CSNK1D (Homo sapiens, UniProt P48730); experiment: Purified Enzyme Assay (ADP-Glo CSNK1D Kinase Assay); format: biochemical; conditions: 2 nM CSNK1D; peptide substrate 150 μM; ATP 20 μM; 45 minutes at room temperature
T2 construct: GST (cleaved yes); purchased University of Dundee clone DU 19064
T2 sequence (P48730 whole entry): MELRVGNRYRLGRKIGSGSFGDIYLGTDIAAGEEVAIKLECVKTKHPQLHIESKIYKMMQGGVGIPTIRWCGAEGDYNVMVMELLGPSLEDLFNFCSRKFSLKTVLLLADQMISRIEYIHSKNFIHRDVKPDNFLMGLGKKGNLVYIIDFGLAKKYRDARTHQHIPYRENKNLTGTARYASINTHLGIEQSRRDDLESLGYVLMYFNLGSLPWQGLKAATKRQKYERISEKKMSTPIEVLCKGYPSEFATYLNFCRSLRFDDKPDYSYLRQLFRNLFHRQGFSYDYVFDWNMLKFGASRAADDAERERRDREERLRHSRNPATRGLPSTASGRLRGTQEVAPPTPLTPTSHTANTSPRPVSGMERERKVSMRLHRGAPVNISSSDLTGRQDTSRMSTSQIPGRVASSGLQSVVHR
Procedure, shortened: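 Percent activity derived from ADP-Glo quantification of ADP produced. Reactions: compound dose-response with human recombinant GST-cleaved CSNK1D, ATP and substrate peptide PLSRTL-pS-VASLPGL, incubated 45 min at room temperature.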

T1 sequence (P48730 whole entry): as above

Row | SMILES | IC50 (human CSNK1D) [nM] | IC50 [1] [nM]
1 | CC1(C)Cn2nc(-c3ccc(F)cn3)c(-c3ccn4nccc4n3)c2CO1 [Example 387, 2-(5-Fluoropyridin-2-yl)-6,6-dimethyl-3-(pyrazolo[1,5-a]pyrimidin-5-yl)-6,7-dihydro-4H-pyrazolo[5,1-c][1,4]oxazine] | 760 | 30
2 | Fc1ccc(-c2nn3c(c2-c2ccnc4cn[nH]c24)OCC(F)(F)C3)cc1 [Example 468, 6,6-Difluoro-2-(4-fluorophenyl)-3-(1H-pyrazolo[4,3-b]pyridin-7-yl)-5,7-dihydropyrazolo[5,1-b][1,3]oxazine] | 187 | 25
3 | Fc1ccc(-c2nn3c(c2-c2ccnc4[nH]ncc24)OCC(F)(F)C3)cc1 [Example 467, 6,6-Difluoro-2-(4-fluorophenyl)-3-(1H-pyrazolo[3,4-b]pyridin-4-yl)-5,7-dihydropyrazolo[5,1-b][1,3]oxazine] | 21 | 2
4 | CC1CCOc2c(-c3ccn4nccc4c3)c(-c3ccc(F)cn3)nn21 (stereo not drawn) [Example 446, 2-(5-Fluoropyridin-2-yl)-7-methyl-3-(pyrazolo[1,5-a]pyridin-5-yl)-6,7-dihydro-5H-pyrazolo[5,1-b][1,3]oxazine] | 4340 | 184
5 | Cc1cc(-c2c(-c3ccc(F)cc3)nn3c2C2CCC3CC2)c2cn[nH]c2n1 [Example 66, 2-(4-Fluorophenyl)-3-(6-methyl-1H-pyrazolo[3,4-b]pyridin-4-yl)-4,5,6,7-tetrahydro-4,7-ethanopyrazolo[1,5-a]pyridine] | 4 | 2
6 | Fc1ccc(-c2nn3c(c2-c2ccnc4[nH]ncc24)CC[C@H]2C[C@H]23)cc1 (stereo in doubt) [Example 339, (5a*S,6a*R)-2-(4-Fluorophenyl)-3-(1H-pyrazolo[3,4-b]pyridin-4-yl)-5,5a,6,6a-tetrahydro-4H-cyclopropa[e]pyrazolo[1,5-a]pyridine] | 7 | 1
7 | C[C@@]1(CF)CCc2c(-c3ccncc3)c(-c3ccc(F)cn3)nn2C1 (single isomer, unassigned) [Example 285, (*R)-6-(Fluoromethyl)-2-(5-fluoro-2-pyridyl)-6-methyl-3-(4-pyridyl)-5,7-dihydro-4H-pyrazolo[1,5-a]pyridine] | 100 | 11
8 | Cc1cc(-c2c(-c3ccc(F)cc3)nn3c2[C@H]2C[C@H]2C3)c2cn[nH]c2n1 (single isomer, unassigned) [Example 277, (3b*S,4a*R)-2-(4-Fluorophenyl)-3-(6-methyl-1H-pyrazolo[3,4-b]pyridin-4-yl)-3b,4,4a,5-tetrahydrocyclopropa[3,4]pyrrolo[1,2-b]pyrazole] | 43 | 6
9 | Fc1ccc(-c2nn3c(c2-c2ccnc4[nH]ncc24)COCC3)cc1 [Example 70, 2-(4-Fluorophenyl)-3-(1H-pyrazolo[3,4-b]pyridin-4-yl)-6,7-dihydro-4H-pyrazolo[5,1-c][1,4]oxazine] | 37 | 2
10 | Cc1cc(-c2c(-c3ccc(F)cc3)nn3c2CC[C@@H]3C)c2cn[nH]c2n1 [Example 17, 4-[(6S)-2-(4-Fluorophenyl)-6-methyl-5,6-dihydro-4H-pyrrolo[1,2-b]pyrazol-3-yl]-6-methyl-1H-pyrazolo[3,4-b]pyridine] | 12 | 1
11 | Cc1n[nH]c2nccc(-c3c(-c4ccc(F)cc4)nn4c3COC(C(F)(F)F)C4)c12 (single isomer, unassigned) [Example 372, (*S)-2-(4-Fluorophenyl)-3-(3-methyl-1H-pyrazolo[3,4-b]pyridin-4-yl)-6-(trifluoromethyl)-6,7-dihydro-4H-pyrazolo[5,1-c][1,4]oxazine] | 724 | 42
12 | CC1(C(F)(F)F)Cn2nc(-c3ccc(F)cc3)c(-c3ccn4nccc4c3)c2CO1 (single isomer, unassigned) [Example 413, (*S)-2-(4-Fluorophenyl)-6-methyl-3-(pyrazolo[1,5-a]pyridin-5-yl)-6-(trifluoromethyl)-6,7-dihydro-4H-pyrazolo[5,1-c][1,4]oxazine] | 75 | 27
13 | Fc1ccc(-c2nn3c(c2-c2ccnc4[nH]ncc24)CC[C@@H]2C[C@@H]23)cc1 (stereo in doubt) [Example 340, (5a*R,6a*S)-2-(4-Fluorophenyl)-3-(1H-pyrazolo[3,4-b]pyridin-4-yl)-5,5a,6,6a-tetrahydro-4H-cyclopropa[e]pyrazolo[1,5-a]pyridine] | 39 | 5
14 | [2H]C([2H])([2H])C1(C([2H])([2H])[2H])Cc2c(-c3ccnc4[nH]ncc34)c(-c3ccc(F)cc3)nn2C1 [Example 241, 4-[2-(4-Fluorophenyl)-5,5-bis(methyl-d3)-4,6-dihydropyrrolo[1,2-b]pyrazol-3-yl]-1H-pyrazolo[3,4-b]pyridine] | 7 | 2
15 | Fc1ccc(-c2nn3c(c2-c2ccnc4[nH]ncc24)CCC3)cc1 [Example 4, 4-(2-(4-Fluorophenyl)-5,6-dihydro-4H-pyrrolo[1,2-b]pyrazol-3-yl)-1H-pyrazolo[3,4-b]pyridine] | 22 | 1
16 | CC(=O)Nc1cc(-c2c(-c3ccc(F)cn3)nn3c2CC[C@H]2[C@@H]3C2(F)F)ccn1 (stereo in doubt) [Example 351, N-(4-((5a*S,6a*R)-6,6-Difluoro-2-(5-fluoropyridin-2-yl)-5,5a,6,6a-tetrahydro-4H-cyclopropa[e]pyrazolo[1,5-a]pyridin-3-yl)pyridin-2-yl)acetamide] | 20 | 2

The next lines start with the values.

Row | IC50 (human CSNK1D) [nM] | IC50 [1] [nM] | SMILES
17 | 13 | 4 | CC1(C)Cc2c(-c3ccnc4[nH]nc(Cl)c34)c(-c3ccc(F)cn3)nn2C1 [Example 237, 3-Chloro-4-(2-(5-fluoropyridin-2-yl)-5,5-dimethyl-5,6-dihydro-4H-pyrrolo[1,2-b]pyrazol-3-yl)-1H-pyrazolo[3,4-b]pyridine]
18 | 28 | 2 | CC1(C)CCn2nc(-c3ccc(F)cn3)c(-c3ccnc4[nH]ncc34)c2C1 [Example 50, 4-(2-(5-Fluoropyridin-2-yl)-5,5-dimethyl-4,5,6,7-tetrahydropyrazolo[1,5-a]pyridin-3-yl)-1H-pyrazolo[3,4-b]pyridine]
19 | 4 | 2 | [2H]C([2H])([2H])C1(C([2H])([2H])[2H])Cc2c(-c3cc(C)nc4[nH]ncc34)c(-c3ccc(F)cc3)nn2C1 [Example 242, 4-[2-(4-Fluorophenyl)-5,5-bis(methyl-d3)-4,6-dihydropyrrolo[1,2-b]pyrazol-3-yl]-6-methyl-1H-pyrazolo[3,4-b]pyridine]
20 | 76 | 9 | [2H]C([2H])([2H])[C@]1(C(F)(F)F)Cn2nc(-c3ccc(F)cn3)c(-c3cc(C)nc4[nH]nc(C)c34)c2CO1 (single isomer, unassigned) [Example 428, (*R)-3-(3,6-Dimethyl-1H-pyrazolo[3,4-b]pyridin-4-yl)-2-(5-fluoropyridin-2-yl)-6-(methyl-d3)-6-(trifluoromethyl)-6,7-dihydro-4H-pyrazolo[5,1-c][1,4]oxazine]
21 | 197 | 17 | Fc1ccc(-c2nn3c(c2-c2ccnc4[nH]ncc24)CCC32CC2)nc1 [Example 249, 2-(5-Fluoro-2-pyridyl)-3-(1H-pyrazolo[3,4-b]pyridin-4-yl)spiro[4,5-dihydropyrrolo[1,2-b]pyrazole-6,1′-cyclopropane]]
22 | 40 | 3 | COCCC1(C)CCc2c(-c3ccnc4[nH]ncc34)c(-c3ccc(F)cn3)nn2C1 (single isomer, unassigned) [Example 318, (*S)-4-[2-(5-Fluoro-2-pyridyl)-6-(2-methoxyethyl)-6-methyl-5,7-dihydro-4H-pyrazolo[1,5-a]pyridin-3-yl]-1H-pyrazolo[3,4-b]pyridine]
23 | 105 | 14 | CC1(CC2COC2)CCc2c(-c3ccnc4[nH]ncc34)c(-c3ccc(F)cn3)nn2C1 (single isomer, unassigned) [Example 320, (*R)-4-(2-(5-Fluoropyridin-2-yl)-6-methyl-6-(oxetan-3-ylmethyl)-4,5,6,7-tetrahydropyrazolo[1,5-a]pyridin-3-yl)-1H-pyrazolo[3,4-b]pyridine]
24 | 368 | 34 | Cc1n[nH]c2ncc(F)c(-c3c(-c4ccc(F)cn4)nn4c3CC[C@@H]3C[C@@H]34)c12 (single isomer, unassigned) [Example 345, (5a*R,6a*S)-3-(5-Fluoro-3-methyl-1H-pyrazolo[3,4-b]pyridin-4-yl)-2-(5-fluoropyridin-2-yl)-5,5a,6,6a-tetrahydro-4H-cyclopropa[e]pyrazolo[1,5-a]pyridine]
25 | 4 | 1 | Fc1ccc(-c2nn3c(c2-c2ccnc4[nH]ncc24)OCC2(C3)CC2(F)F)nc1 (single isomer, unassigned) [Example 478, (*S)-2,2-Difluoro-2′-(5-fluoropyridin-2-yl)-3′-1H-pyrazolo[3,4-b]pyridin-4-yl)-5′H,7′H-spiro[cyclopropane-1,6′-pyrazolo[5,1-b][1,3]oxazine]]
26 | 19 | 2 | Cc1nc2[nH]ncc2c(-c2c(-c3ccc(F)cn3)nn3c2CC(C)(C)C3)c1F [Example 240, 5-Fluoro-4-[2-(5-fluoro-2-pyridyl)-5,5-dimethyl-4,6-dihydropyrrolo[1,2-b]pyrazol-3-yl]-6-methyl-1H-pyrazolo[3,4-b]pyridine]
27 | 557 | 19 | CC[C@@H]1Cn2nc(-c3ccc(F)cn3)c(-c3ccnc4[nH]ncc34)c2CO1 (single isomer, unassigned) [Example 95, (*R)-6-Ethyl-2-(5-fluoropyridin-2-yl)-3-(1H-pyrazolo[3,4-b]pyridin-4-yl)-6,7-dihydro-4H-pyrazolo[5,1-c][1,4]oxazine]
